From PubChem BioAssay AID1996
Converted amounts (≈) assume the structure as drawn.

settings: buffer; pH 7.4; 200.0 µM

`CCC(NC(=O)c1ccncc1)c1ccccc1` (stereo unspecified) and `COc1cccc(CNC(=O)c2cc(C)nc3ccccc23)c1` cannot be ordered by solubility kinetic: > 36 µg/mL for the first, 41.1 µg/mL (≈ 134 µM) for the second.

Going from `COc1cc(NC(=S)Nc2ccc(OC(F)F)cc2)cc(OC)c1` to `COC(=O)c1ccc(NC(=O)CSc2nc3ncccc3[nH]2)cc1`, the solubility kinetic falls from 23.9 µg/mL (≈ 67.4 µM) to 3.5 µg/mL (≈ 10.2 µM) (6.8-fold).

Going from `O=C(NC1CCCCC1)c1cc(-c2ccccc2Cl)on1` to `COc1ccc(C(=O)NC2CCCc3ccccc32)cc1[N+](=O)[O-]` (stereo unspecified), the solubility kinetic rises from < 0.3 µg/mL to 2.4 µg/mL (≈ 7.35 µM).

First: CC1CC(C)CN(C(=O)CNC(=O)c2ccc3ccccc3c2)C1 (stereo unspecified)
Second: Cc1ccc(S(=O)(=O)N2CCC[C@H]2C(=O)OCC(=O)N2CCc3ccccc32)cc1
The solubility kinetic of the first is higher: > 48.7 µg/mL for the first, 10.8 µg/mL (≈ 25.2 µM) for the second.

Compared with `CN(Cc1cccc(Cl)c1Cl)C(=O)c1cc(S(=O)(=O)N2CCOCC2)ccc1F`, `COc1ccccc1OCC(=O)Nc1cc(S(=O)(=O)N2CCOCC2)ccc1N1CCCCC1` is 1.7-fold lower in solubility kinetic: 5.2 µg/mL (≈ 11.3 µM) for the first, 3.1 µg/mL (≈ 6.33 µM) for the second.

First: Cc1cccc(NC(=O)Cn2cnc3c(oc4ccccc43)c2=O)c1
Second: COc1cccc2cc(-c3nc4ccccc4o3)c(=O)oc12
The solubility kinetic of the first is lower: < 0.2 µg/mL for the first, 1.7 µg/mL (≈ 5.8 µM) for the second.

`O=C(Nc1ccc(F)cc1F)c1ccccc1NC(=O)C1CC=CCC1C(=O)O` (stereo unspecified) and `O=C(Nc1cccc(Cl)c1)c1cncn1-c1ccc(F)cc1` are within 1.5-fold of each other in solubility kinetic: 59.7 µg/mL (≈ 149 µM) for the first, 45.4 µg/mL (≈ 144 µM) for the second.

Going from `O=C(Nc1ccccc1C(F)(F)F)N1CCCC1c1cccnc1` (stereo unspecified) to `O=C(COc1cccc(C(F)(F)F)c1)NCC(c1ccco1)N1CCCC1` (stereo unspecified), the solubility kinetic falls from > 50.3 µg/mL to 45.1 µg/mL (≈ 118 µM).

Compared with `Cc1nc(-c2ccccc2)[nH]c(=O)c1Oc1ccc(Cl)cc1Cl`, `O=S(=O)(c1ccccc1)N(CC1CO1)c1cc(Cl)ccc1Cl` (stereo unspecified) is higher in solubility kinetic: < 0.4 µg/mL for the first, 36.4 µg/mL (≈ 102 µM) for the second.

`O=C1c2ccsc2SCCN1Cc1c(F)cccc1Cl` and `O=C1C2CC(O)CN2C(=S)N1Cc1ccccc1` (stereo unspecified) cannot be ordered by solubility kinetic: 44.4 µg/mL (≈ 135 µM) for the first, > 39.3 µg/mL for the second.

`CC(=O)C1C(c2ccc(C)cc2)c2c(noc2C)CC1(C)O` (stereo unspecified) and `Cc1ccc(C)c(C(C)NC(=O)c2ccc(Br)o2)c1` (stereo unspecified) are within 1.5-fold of each other in solubility kinetic: 42.2 µg/mL (≈ 141 µM) for the first, 42.1 µg/mL (≈ 131 µM) for the second.

`Cn1c(=O)c2c(ncn2CCC(=O)N/N=C/c2ccncc2)n(C)c1=O` and `O=C(CCC(=O)Nc1ccc(F)cc1)N/N=C/c1cccnc1` cannot be ordered by solubility kinetic: > 53.3 µg/mL for the first, > 47.1 µg/mL for the second.

Going from `CC(CCN1CCOCC1)c1ccccc1` (stereo unspecified) to `Cc1c(C(=O)CN2CCCC(C)(C)C2)c2ccccc2n1C`, the solubility kinetic rises from 19.3 µg/mL (≈ 88 µM) to > 44.8 µg/mL.

Going from `Cc1oc(CC(C)C)cc1C(=O)NCCCC(=O)O` to `COc1cc(C(=O)OCC(=O)NCCCc2ccccc2)ccc1OCC(C)C`, the solubility kinetic falls from > 40.1 µg/mL to 1.2 µg/mL (≈ 3 µM).

First: Cc1ccc(N=C(N)N=C(N)N)cc1
Second: Cc1ccc(CNC(=O)Cc2cn(C)c3ccccc23)cc1
The solubility kinetic of the first is higher: > 28.7 µg/mL for the first, 2.2 µg/mL (≈ 7.52 µM) for the second.

`O=C(Cc1ccc(Br)cc1)NCCCn1ccnc1` and `CC(C)(Oc1ccc(CCNC(=O)c2ccc(Cl)cc2)cc1)C(=O)O` cannot be ordered by solubility kinetic: > 48.3 µg/mL for the first, > 54.3 µg/mL for the second.

Going from `CCOC(=O)c1nccnc1C(=O)Nc1cccc(C(F)(F)F)c1` to `CCc1noc(C)c1C(=O)OCC(=O)Nc1ccc2c(c1)OCO2`, the solubility kinetic falls from 47.5 µg/mL (≈ 140 µM) to 9.5 µg/mL (≈ 28.6 µM) (5-fold).

Compared with `COCCCNc1nc2nonc2nc1N1CCN(C2CCCC2)CC1`, `Cc1ccc(C(=O)N2CCN(c3ccc(C(F)(F)F)cn3)CC2)o1` is 2.3-fold lower in solubility kinetic: 45.9 µg/mL (≈ 127 µM) for the first, 19.8 µg/mL (≈ 58.4 µM) for the second.

First: Cc1cc(C)n2c(SCC(=O)Nc3cc(S(=O)(=O)N(C)C)ccc3C)nnc2n1
Second: Cc1cccc(N2CCN(C(=O)CCc3nc4ccccc4c(=O)[nH]3)CC2)c1C
The solubility kinetic of the first is higher: > 65.2 µg/mL for the first, 2 µg/mL (≈ 5.12 µM) for the second.

`Cc1ccc2[nH]c3c(c2c1)CCN(C)C3` and `CCOC(=O)C[n+]1ccc2c([nH]c3ccccc32)c1C.[Br-]` cannot be ordered by solubility kinetic: > 30 µg/mL for the first, 49.7 µg/mL for the second.

`FC(F)(F)c1cc(N2CCNCC2)c2ccccc2n1` and `O=c1c2ccccc2nc2ccccn12` are within 1.5-fold of each other in solubility kinetic: 41.6 µg/mL (≈ 148 µM) for the first, 28.7 µg/mL (≈ 146 µM) for the second.

Compared with `CCN(CC)C(=O)C(C)N(C#N)c1nc(Cl)nc(N(C)C)n1` (stereo unspecified), `CC(C)NC(=O)/C=C/C(=O)O` is lower in solubility kinetic: > 48.9 µg/mL for the first, 22.3 µg/mL (≈ 142 µM) for the second.

Compared with `Cl.OC12CC3C[C@H](C1)C(N1CCOCC1)[C@@H](C3)C2` (stereo partly specified), `O=S(=O)(Nc1ccncc1)c1cc(Cl)ccc1Cl` is 1.7-fold lower in solubility kinetic: 36.8 µg/mL for the first, 21.2 µg/mL (≈ 69.9 µM) for the second.
